Paper PMC9499467, “Phenanthroindolizidine Alkaloids Isolated from Tylophora ovata as Potent Inhibitors of Inflammation, Spheroid Growth, and Invasion of Triple-Negative Breast Cancer” (International Journal of Molecular Sciences, 2022)

Key:
NFκB = NFκB inhibition assay (24 h), NFκB-dependent firefly luciferase reporter; assay type: cell-based; conditions: Homo sapiens, 24 h, read-out: NFκB Inhibition 24 h IC50
Procedure: On day 1, 3 × 10^4 NFκB MDA-MB-231-firefly cells were seeded into white 96 well plates (Greiner; #655098). On day 2, the medium was replaced with starvation medium and the cells were pre-incubated for 20 min with either 100 µL of DMSO (Roth; #A994.1) alone at maximal 0.1%, or with the final concentration of the diluted compounds (Table 3). To activate NFκB signaling, cells were stimulated with 20 ng/mL TNFα (Peprotech, Hamburg, Germany; #300-01A). Cell lysis was performed in 20 µL 1× cell lysis buffer according to the manufacturer’s instruction for the Luciferase Assay System (Promega #E1500). NFκB-dependent luminescence was determined as relative light units (RLU) using the microplate reader Spark® (Tecan).

MDA-MB-231 = assay: Cell cycle studies (PI-DNA flow cytometry) in MDA-MB-231; assay type: cell-based, human; conditions: MDA-MB-231, 20 nM, 72 h
Procedure: To investigate cell cycle progression in the presence of compound (1s) or paclitaxel (Santa Cruz Biotechnology; #sc-201439), we quantified the DNA content in the cell. On day 1, the cells were seeded in 1 mL into a 24 well plate (Greiner; #662160). On day 2, MDA-MB-468-UnaG were pre-treated either without (normoxia) or with 100 µM CoCl2 (hypoxia) (Sigma-Aldrich; #C8661) for 24 h before compounds were applied. On day 2 for MDA-MB-231 or on day 3 for MDA-MB-468-UnaG, paclitaxel was applied at the concentrations 15 nM, 37 nM, and 100 nM, and compound (1s) was applied at concentrations ranging from 2 nM to 1000 nM. […] The fluorescence signal resulting from PI-DNA complex formation was recorded using the flow cytometer CytoFlex (Beckmann Coulter, Krefeld, Germany). The cell cycle phase population was determined based on the DNA content in a set of chromosomes (n) in a cell using the integrated software CytExpert (Beckmann Coulter): sub-G0/G1 (<2n), G0/G1 (2n), S (>2n, <4n), G2/M (4n) or hyperploid cells (>4n) (see Figure S10).
FSC-A and FSC-height (H). (c) To evaluate cell cycles phases, the range of analyzed cells was deter-mined within the (b) single cells by excluding recorded events that extend the proportional distri-bution of the DNA chromosome set (n): < 2n; > 4n. […]

HIF-1α = assay: HIF inhibition, HIF-mediated UnaG reporter expression; assay type: cell-based; conditions: for decrease of HIF-1α-mediated UnaG expression: normoxia, MDA-MB-468-UnaG
Procedure: The HIF activity after treatment with compound (1s) or with the commercially available NFκB inhibitor BAY 11-7085 ((Hycultec, Beutelsbach, Germany; #HY-10257-10),) for 24 h was determined using the UnaG-reporter gene cell line MDA-MB-468-UnaG. On day 1, 1.5 × 10^4 MDA-MB-468-UnaG cells were seeded into a black 96 well plate (Greiner; #655090). […] HIF-mediated UnaG expression was recorded in z-stacked images using the CQ1 high-content imaging system (Yokogawa, Wehr, Germany; 100× g magnification). Beforehand, the UnaG fluorescence intensity was determined in UnaG-expressing cell clones (Figure S5).
Figure 7 Compound (1s) decreases HIF-dependent gene transcription. MDA-MB-468-UnaG cells were pre-treated for 1 h without (CTRL) or with compound (1s) or BAY 11-7085 (BAY) before being grown (a,b) in the absence (normoxia; CTRL) or (c,d) presence of 100 µM CoCl2 (hypoxia) for another 24 h. (a,c) Representative fluorescence images. Scale bar: 200 µm (b,d) Total fluorescence intensity of HIF-mediated UnaG was normalized to the CTRL group. Statistical difference was calculated with one-way ANOVA (b) vs. CTRL (normoxia) (ns = not significant, * p < 0.05). (d) vs. CTRL (hypoxia) (# p < 0.05); vs. CoCl2 (* p < 0.05, ** p < 0.01, *** p < 0.001). (b,d) Columns represent the mean ± SEM (n = 3).

Row | Structure (SMILES) | IC50 (NFκB) [nM] | cell cycle phase population (MDA-MB-231) | reduction of HIF-1α-activity (HIF-1α; CoCl2-simulated hypoxia (100 µM), 20 nM, 24 h) [%] | decrease of HIF-1α-mediated UnaG expression (HIF-1α; 10 nM, 24 h) [%] | decrease of HIF-1α-mediated UnaG expression (HIF-1α; 20 nM, 24 h) [%] | CoCl2-induced increase in HIF-1α-activity (HIF-1α; pre-treatment before CoCl2-simulated hypoxia, 6 µM BAY 11-7085, 2, 5, 10, 20 nM (1s))
1 | COc1ccc2c3c(c4cc(OC)c(OC)cc4c2c1)CN1CCCC1C3O (stereo not drawn) [Compound (1), O-methyltylophorinidine] | 3.7 ± 1 | Cell populations increased in the S-phase as well as in the G2/M phase |  |  |  | 
2 | COc1ccc2c3c(c4cc(OC)c(OC)cc4c2c1)CN1CCCC1C3O (stereo not drawn) [Compound (1s), O-methyltylophorinidine] |  |  | 14 ± 4 | 11 ± 3 | 13 ± 4 | blocked
